In publication PMC2700827 (Journal of the American Chemical Society, 2008):
Where two headings read alike, the source gives them in different places.

Legend:
[1] = phenol pKa given in Figure 5 legend, source not given
[2] = hydrogen bond acceptor; cited from earlier work

SMILES	pKa [1]	pKa [2]
Oc1c(F)cc(F)cc1F [2,4,6-F3-phenol]	7.2	
O=[N+]([O-])c1cc[n+]([O-])cc1 [4-nitropyridine-N-oxide]		−1.7
